The structures appear in SMILES notation.

By IC50 is commonly meant the point on the concentration scale where inhibition reaches its midpoint.

In this test the target is Human complement C1s enzyme (Homo sapiens (Human), UniProt P09871). The experiment in a line: Human C1s enzyme assay. The class given is biochemical. Particulars: Human complement C1s enzyme 1.16 nM, substrate Z-L-Lys-SBzl 100 μM, assay of Example 3; read-out: IC50 (Stars). A digest of the protocol: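 IC50 derived by nonlinear regression of rate versus concentration, with rate taken from A405 kinetics (30 s intervals, 30 min) after adding 100 μM each Z-L-Lys-SBzl and DTNB. C1s from human serum, 1.16 nM, exposed to compound for 5 min at RT beforehand; buffer 50 mM Tris, 1 M NaCl, pH 7.5.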
Sequence of Human complement C1s enzyme (P09871 438-688 limits assumed): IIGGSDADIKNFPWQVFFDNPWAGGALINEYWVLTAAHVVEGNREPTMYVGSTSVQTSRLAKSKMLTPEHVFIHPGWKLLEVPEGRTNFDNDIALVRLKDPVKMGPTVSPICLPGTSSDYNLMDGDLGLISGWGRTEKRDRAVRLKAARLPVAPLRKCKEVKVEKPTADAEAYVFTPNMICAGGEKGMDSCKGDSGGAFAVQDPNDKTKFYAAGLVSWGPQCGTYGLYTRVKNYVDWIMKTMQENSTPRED
Sequence of Human complement C1s enzyme (P09871 16-437 partner limits assumed): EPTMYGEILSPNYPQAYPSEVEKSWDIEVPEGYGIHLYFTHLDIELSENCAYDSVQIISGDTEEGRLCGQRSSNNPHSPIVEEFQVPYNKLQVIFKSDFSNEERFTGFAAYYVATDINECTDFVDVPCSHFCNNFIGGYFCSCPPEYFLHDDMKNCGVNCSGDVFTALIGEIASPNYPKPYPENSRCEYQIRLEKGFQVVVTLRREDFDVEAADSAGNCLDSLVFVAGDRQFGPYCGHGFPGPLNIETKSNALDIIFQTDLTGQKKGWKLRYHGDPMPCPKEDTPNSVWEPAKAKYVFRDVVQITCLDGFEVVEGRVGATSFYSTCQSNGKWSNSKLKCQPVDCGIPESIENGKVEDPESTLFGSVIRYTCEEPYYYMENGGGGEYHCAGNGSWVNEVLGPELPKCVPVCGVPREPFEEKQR
As for `N=C(N)c1csc(CNC(=O)[C@@H]2CC3(CN2C(=O)CNC(=O)c2ccc(-c4ccc(F)cc4)o2)OCCO3)c1` [Compound 299, (S)—N-((4-carbamimidoylthiophen-2-yl)methyl)-7-((5-(4-fluorophenyl)furan-2-carbonyl)glycyl)-1,4-dioxa-7-azaspiro[4.4]nonane-8-carboxamide], the half-inhibitory concentration (IC50) was < 0.1 µM.

`C[C@H](NC(=O)c1ccc(-c2ccccc2)cc1)C(=O)N1CC2(C[C@H]1C(=O)NCc1cc(C(=N)N)cs1)OCCO2` [Compound 300, (S)-7-(([1,1′-biphenyl]-4-carbonyl)-L-alanyl)-N-((4-carbamimidoylthiophen-2-yl)methyl)-1,4-dioxa-7-azaspiro[4.4]nonane-8-carboxamide]: the half-inhibitory concentration (IC50) was < 0.1 µM.

Take `C[C@@H](NC(=O)c1ccc(-c2ccc(F)cc2F)cc1)C(=O)N1CC2(C[C@H]1C(=O)NCc1cc(C(=N)N)cs1)OCCO2` [Compound 301, (S)—N-((4-carbamimidoylthiophen-2-yl)methyl)-7-((2′,4′-difluoro-[1,1′-biphenyl]-4-carbonyl)-D-alanyl)-1,4-dioxa-7-azaspiro[4.4]nonane-8-carboxamide]: the IC50 is < 0.1 µM.

Take `C[C@@H](NC(=O)c1ccc(-c2ccccc2)cc1)C(=O)N1CC2(C[C@H]1C(=O)NCc1cc(C(=N)N)cs1)OCCO2` [Compound 302, (S)-7-(([1,1′-biphenyl]-4-carbonyl)-D-alanyl)-N-((4-carbamimidoylthiophen-2-yl)methyl)-1,4-dioxa-7-azaspiro[4.4]nonane-8-carboxamide]: the 50% inhibitory concentration (IC50) was < 0.1 µM.

With `C[C@@H](NC(=O)[C@@H]1C[C@]2(CN)C[C@@H]2N1C(=O)CNC(=O)c1ccc2c(c1)-c1ccccc1C2(F)F)c1cc(C(=N)N)cs1` [Compound 303, (1S,3S,5S)-5-(aminomethyl)-N—((R)-1-(4-carbamimidoylthiophen-2-yl)ethyl)-2-((9,9-difluoro-9H-fluorene-3-carbonyl)glycyl)-2-azabicyclo[3.1.0]hexane-3-carboxamide], the IC50 was < 0.1 µM.

With `C[C@@H](NC(=O)[C@@H]1C[C@]2(CN(C)C)C[C@@H]2N1C(=O)CNC(=O)c1ccc2c(c1)-c1ccccc1C2(F)F)c1cc(C(=N)N)cs1` [Compound 304, (1S,3S,5S)—N—((R)-1-(4-carbamimidoylthiophen-2-yl)ethyl)-2-((9,9-difluoro-9H-fluorene-3-carbonyl)glycyl)-5-((dimethylamino)methyl)-2-azabicyclo[3.1.0]hexane-3-carboxamide], the half-maximal inhibitory concentration (IC50) was < 0.1 µM.

Turning to `C[C@@H](NC(=O)[C@@H]1C[C@@H](C(F)(F)F)CN1C(=O)CNC(=O)c1ccc(Oc2ccc(F)cc2)cc1)c1cc(C(=N)N)cs1` [Compound 307, (2S,4R)—N—((R)-1-(4-carbamimidoylthiophen-2-yl)ethyl)-1-((4-(4-fluorophenoxy)benzoyl)glycyl)-4-(trifluoromethyl)pyrrolidine-2-carboxamide], the IC50 is < 0.1 µM.

For `O=C(NCC(=O)N1CC2(C[C@H]1C(=O)NCc1cc(NCCO)cs1)OCCO2)c1ccc(Oc2ccc(F)cc2)cc1` [Compound 308, (S)-7-((4-(4-fluorophenoxy)benzoyl)glycyl)-N-((4-((2-hydroxyethyl)amino)thiophen-2-yl)methyl)-1,4-dioxa-7-azaspiro[4.4]nonane-8-carboxamide], the IC50 was > 1 µM.

As to `C=CC(=O)Nc1csc(CNC(=O)[C@@H]2CC3(CN2C(=O)CNC(=O)c2ccc(Oc4ccc(F)cc4)cc2)OCCO3)c1` [Compound 309, (S)-N-((4-acrylamidothiophen-2-yl)methyl)-7-((4-(4-fluorophenoxy)benzoyl)glycyl)-1,4-dioxa-7-azaspiro[4.4]nonane-8-carboxamide], the IC50 is > 1 µM.

As for `NC(=O)CCNc1csc(CNC(=O)[C@@H]2CC3(CN2C(=O)CNC(=O)c2ccc(Oc4ccc(F)cc4)cc2)OCCO3)c1` [Compound 310, (S)-N-((4-((3-amino-3-oxopropyl)amino)thiophen-2-yl)methyl)-7-((4-(4-fluorophenoxy)benzoyl)glycyl)-1,4-dioxa-7-azaspiro[4.4]nonane-8-carboxamide], the IC50 was > 1 µM.

`NCCC(=O)Nc1csc(CNC(=O)[C@@H]2CC3(CN2C(=O)CNC(=O)c2ccc(Oc4ccc(F)cc4)cc2)OCCO3)c1` [Compound 311, (S)-N-((4-(3-aminopropanamido)thiophen-2-yl)methyl)-7-((4-(4-fluorophenoxy)benzoyl)glycyl)-1,4-dioxa-7-azaspiro[4.4]nonane-8-carboxamide]: the IC50 is > 1 µM.

As to `C[C@@H](NC(=O)[C@@H]1CC2(CN1C(=O)CNC(=O)c1ccc3c(c1)Sc1ccccc1O3)OCCO2)c1cc(C(=N)N)cs1` [Compound 312, (S)—N—((R)-1-(4-carbamimidoylthiophen-2-yl)ethyl)-7-((phenoxathiine-2-carbonyl)glycyl)-1,4-dioxa-7-azaspiro[4.4]nonane-8-carboxamide], the IC50 is < 0.1 µM.

For `C[C@@H](NC(=O)[C@@H]1C[C@]2(COCCN)C[C@@H]2N1C(=O)CNC(=O)c1ccc2c(c1)-c1ccccc1C2(F)F)c1cc(C(=N)N)cs1` [Compound 313, (1S,3S,5R)-5-((2-aminoethoxy)methyl)-N—((R)-1-(4-carbamimidoylthiophen-2-yl)ethyl)-2-((9,9-difluoro-9H-fluorene-3-carbonyl)glycyl)-2-azabicyclo[3.1.0]hexane-3-carboxamide], the IC50 is < 0.1 µM.

On to `N=C(N)c1csc(C(CN)NC(=O)[C@@H]2C[C@@H](OC(F)F)CN2C(=O)CNC(=O)c2ccc(Oc3ccccc3)cc2)c1` (stereo partly shown) [Compound 314], for which the IC50 is > 1 µM.

Regarding `NCC(=O)Nc1csc(CNC(=O)[C@@H]2CC3(CN2C(=O)CNC(=O)c2ccc(Oc4ccc(F)cc4)cc2)OCCO3)c1` [Compound 316, (S)-N-((4-(2-aminoacetamido)thiophen-2-yl)methyl)-7-((4-(4-fluorophenoxy)benzoyl)glycyl)-1,4-dioxa-7-azaspiro[4.4]nonane-8-carboxamide], the half-inhibitory concentration (IC50) lay in the range of 0.1 to 1 µM.

As to `NC(=O)Nc1csc(CNC(=O)[C@@H]2CC3(CN2C(=O)CNC(=O)c2ccc(Oc4ccc(F)cc4)cc2)OCCO3)c1` [Compound 317, (S)-7-((4-(4-fluorophenoxy)benzoyl)glycyl)-N-((4-ureidothiophen-2-yl)methyl)-1,4-dioxa-7-azaspiro[4.4]nonane-8-carboxamide], the IC50 was > 1 µM.

Take `NCCCCNc1csc(CNC(=O)[C@@H]2CC3(CN2C(=O)CNC(=O)c2ccc(Oc4ccc(F)cc4)cc2)OCCO3)c1` [Compound 318, (S)-N-((4-((4-aminobutyl)amino)thiophen-2-yl)methyl)-7-((4-(4-fluorophenoxy)benzoyl)glycyl)-1,4-dioxa-7-azaspiro[4.4]nonane-8-carboxamide]: the IC50 is > 1 µM.

Take `Nc1c(Nc2csc(CNC(=O)[C@@H]3CC4(CN3C(=O)CNC(=O)c3ccc(Oc5ccc(F)cc5)cc3)OCCO4)c2)c(=O)c1=O` [Compound 319, (S)-N-((4-((2-amino-3,4-dioxocyclobut-1-en-1-yl)amino)thiophen-2-yl)methyl)-7-((4-(4-fluorophenoxy)benzoyl)glycyl)-1,4-dioxa-7-azaspiro[4.4]nonane-8-carboxamide]: the IC50 is > 1 µM.

As for `NCCCC(=O)Nc1csc(CNC(=O)[C@@H]2CC3(CN2C(=O)CNC(=O)c2ccc(Oc4ccc(F)cc4)cc2)OCCO3)c1` [Compound 320, (S)-N-((4-(4-aminobutanamido)thiophen-2-yl)methyl)-7-((4-(4-fluorophenoxy)benzoyl)glycyl)-1,4-dioxa-7-azaspiro[4.4]nonane-8-carboxamide], the half-maximal inhibitory concentration (IC50) was > 1 µM.

`C[C@@H](NC(=O)[C@@H]1CC2(CN1C(=O)Cc1ccc(-c3ccc(F)cc3F)cc1)OCCO2)c1cc(C(=N)N)cs1` [Compound 321, (S)—N—((R)-1-(4-carbamimidoylthiophen-2-yl)ethyl)-7-(2-(2′,4′-difluoro-[1,1′-biphenyl]-4-yl)acetyl)-1,4-dioxa-7-azaspiro[4.4]nonane-8-carboxamide]: the IC50 was < 0.1 µM.

As to `C[C@@H](NC(=O)[C@@H]1C[C@H](C(F)(F)F)CN1C(=O)CNC(=O)c1ccc2c(c1)-c1ccccc1C2(F)F)c1cc(C(=N)N)cs1` [Compound 322, (2S,4S)—N—((R)-1-(4-carbamimidoylthiophen-2-yl)ethyl)-1-((9,9-difluoro-9H-fluorene-3-carbonyl)glycyl)-4-(trifluoromethyl)pyrrolidine-2-carboxamide], the IC50 is < 0.1 µM.

`C[C@@H](NC(=O)[C@@H]1C[C@H](C(F)(F)F)CN1C(=O)CNC(=O)c1ccc(Oc2ccc(F)cc2)cc1)c1cc(C(=N)N)cs1` [Compound 323, (2S,4S)—N—((R)-1-(4-carbamimidoylthiophen-2-yl)ethyl)-1-((4-(4-fluorophenoxy)benzoyl)glycyl)-4-(trifluoromethyl)pyrrolidine-2-carboxamide]: the IC50 was < 0.1 µM.

Turning to `C[C@@H](NC(=O)[C@@H]1C[C@@H](C(F)(F)F)CN1C(=O)CNC(=O)c1ccc2c(c1)-c1ccccc1C2(F)F)c1cc(C(=N)N)cs1` [Compound 324, (2S,4R)—N—((R)-1-(4-carbamimidoylthiophen-2-yl)ethyl)-1-((9,9-difluoro-9H-fluorene-3-carbonyl)glycyl)-4-(trifluoromethyl)pyrrolidine-2-carboxamide], the IC50 was < 0.1 µM.

`Cc1c2ccccc2cc2cc(C(=O)NCC(=O)N3CC4(C[C@H]3C(=O)N[C@H](C)c3cc(C(=N)N)cs3)OCCO4)ccc12` [Compound 325, (S)—N—((R)-1-(4-carbamimidoylthiophen-2-yl)ethyl)-7-((10-methylanthracene-2-carbonyl)glycyl)-1,4-dioxa-7-azaspiro[4.4]nonane-8-carboxamide]: the IC50 was < 0.1 µM.

`C[C@@H](NC(=O)[C@@H]1C[C@@H](OC(F)F)CN1C(=O)CNC(=O)c1ccc2[nH]c3ccccc3c2c1)c1cc(C(=N)N)cs1` [Compound 326, N-(2-((2S,4R)-2-(((R)-1-(4-carbamimidoylthiophen-2-yl)ethyl)carbamoyl)-4-(difluoromethoxy)pyrrolidin-1-yl)-2-oxoethyl)-9H-carbazole-3-carboxamide]: the IC50 was < 0.1 µM.

(Values after patent US20250346585A1 (Alexion Pharmaceuticals, Inc., priority 2022, published 2025).)
